Measured values published in ChEMBL document CHEMBL3525902, “In vitro metabolism of oxymetazoline: evidence for bioactivation to a reactive metabolite” (Drug Metab Dispos, 2011).

What was measured:
[1] = Drug metabolism in NADPH supplemented rabbit liver S9 fraction assessed as 3-((1H-imidazol-2-yl)methyl)-6-tert-butyl-2,4-dimethylphenol formation at 50 uM in presence of N-acetyl cysteine by LC-MS/MS method; format: ADME, subcellular, Oryctolagus cuniculus; details: s9, 50 µM
[2] = Drug metabolism in NADPH supplemented human liver S9 fraction assessed as 3-((4,5-dihydro-1H-imidazol-2-yl)methyl)-6-(1-hydroxy-2-methylpropan-2-yl)-2,4-dimethylphenol formation at 50 uM in presence of glutathione by LC-MS/MS method; format: ADME, subcellular; details: s9, 50 µM
[3] = target: T1, Cytochrome P450 2B6 (Homo sapiens, UniProt P20813); test: Activity of human recombinant CYP2B6 assessed as metabolite formation at 50 uM in presence of NADPH by LC-MS/MS method; format: ADME; details: recombinant enzyme
T1 sequence (P20813 whole entry): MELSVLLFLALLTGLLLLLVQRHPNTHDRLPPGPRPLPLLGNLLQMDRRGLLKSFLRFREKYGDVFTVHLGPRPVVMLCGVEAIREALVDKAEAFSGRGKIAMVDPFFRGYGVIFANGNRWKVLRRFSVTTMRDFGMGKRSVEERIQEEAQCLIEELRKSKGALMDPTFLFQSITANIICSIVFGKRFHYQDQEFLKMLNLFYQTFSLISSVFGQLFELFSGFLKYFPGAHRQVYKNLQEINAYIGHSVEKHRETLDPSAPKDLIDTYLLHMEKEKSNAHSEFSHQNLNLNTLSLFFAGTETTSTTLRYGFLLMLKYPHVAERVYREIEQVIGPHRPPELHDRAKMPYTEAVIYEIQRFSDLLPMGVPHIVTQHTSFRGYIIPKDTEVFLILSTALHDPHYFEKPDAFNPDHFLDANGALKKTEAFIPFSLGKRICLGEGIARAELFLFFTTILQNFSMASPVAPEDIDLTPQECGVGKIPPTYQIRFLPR

[4] = system: Liver microsome; test: Drug metabolism in NADPH supplemented rat liver microsomes fraction assessed as 3-((1H-imidazol-2-yl)methyl)-6-tert-butyl-2,4-dimethylphenol formation at 50 uM after 1 hr by LC-MS/MS method; format: ADME
[5] = system: Liver microsome; test: Drug metabolism in NADPH supplemented rat liver microsomes fraction assessed as 3-((1H-imidazol-2-yl)methyl)-6-(1-hydroxy-2-methylpropan-2-yl)-2,4-dimethylphenol formation at 50 uM after 1 hr by LC-MS/MS method; format: ADME
[6] = system: Liver microsome; test: Drug metabolism in NADPH supplemented human liver microsomes fraction assessed as 3-((1H-imidazol-2-yl)methyl)-6-(1-hydroxy-2-methylpropan-2-yl)-2,4-dimethylphenol formation at 50 uM after 1 hr by LC-MS/MS method; format: ADME
[7] = system: Liver microsome; test: Drug metabolism in NADPH supplemented rat liver microsomes fraction assessed as 3-((4,5-dihydro-1H-imidazol-2-yl)methyl)-6-(1-hydroxy-2-methylpropan-2-yl)-2,4-dimethylphenol formation at 50 uM after 1 hr by LC-MS/MS method; format: ADME
[8] = target: Cytochrome P450 3A4 (Homo sapiens, UniProt P08684); test: Activity of human recombinant CYP3A4 assessed as metabolite formation at 50 uM in presence of NADPH by LC-MS/MS method; format: ADME; details: recombinant enzyme
Chain of Cytochrome P450 3A4 (P08684 whole entry): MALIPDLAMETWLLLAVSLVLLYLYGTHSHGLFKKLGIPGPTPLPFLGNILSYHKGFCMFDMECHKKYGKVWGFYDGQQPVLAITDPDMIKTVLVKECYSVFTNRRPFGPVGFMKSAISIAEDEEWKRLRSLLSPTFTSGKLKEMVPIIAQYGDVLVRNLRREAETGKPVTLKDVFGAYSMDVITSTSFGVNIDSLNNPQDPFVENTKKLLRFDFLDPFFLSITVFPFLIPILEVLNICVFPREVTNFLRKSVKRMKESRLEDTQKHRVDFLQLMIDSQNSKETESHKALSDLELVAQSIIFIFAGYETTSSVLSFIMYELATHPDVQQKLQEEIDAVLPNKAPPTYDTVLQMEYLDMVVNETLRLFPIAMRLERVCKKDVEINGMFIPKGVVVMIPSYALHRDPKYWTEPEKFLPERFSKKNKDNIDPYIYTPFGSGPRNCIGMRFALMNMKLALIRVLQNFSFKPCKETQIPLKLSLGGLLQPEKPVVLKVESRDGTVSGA

[9] = Drug metabolism in NADPH supplemented rabbit liver microsomes fraction assessed as 3-((1H-imidazol-2-yl)methyl)-6-(1-hydroxy-2-methylpropan-2-yl)-2,4-dimethylphenol formation at 50 uM after 1 hr by LC-MS/MS method; format: ADME, Oryctolagus cuniculus
[10] = target: T2, Cytochrome P450 2C19 (Homo sapiens, UniProt P33261); test: Activity of human recombinant CYP2C19 assessed as 3-((1H-imidazol-2-yl)methyl)-6-(1-hydroxy-2-methylpropan-2-yl)-2,4-dimethylphenol formation at 50 uM in presence of NADPH by LC-MS/MS method; format: ADME; details: recombinant enzyme
T2 sequence (P33261 whole entry): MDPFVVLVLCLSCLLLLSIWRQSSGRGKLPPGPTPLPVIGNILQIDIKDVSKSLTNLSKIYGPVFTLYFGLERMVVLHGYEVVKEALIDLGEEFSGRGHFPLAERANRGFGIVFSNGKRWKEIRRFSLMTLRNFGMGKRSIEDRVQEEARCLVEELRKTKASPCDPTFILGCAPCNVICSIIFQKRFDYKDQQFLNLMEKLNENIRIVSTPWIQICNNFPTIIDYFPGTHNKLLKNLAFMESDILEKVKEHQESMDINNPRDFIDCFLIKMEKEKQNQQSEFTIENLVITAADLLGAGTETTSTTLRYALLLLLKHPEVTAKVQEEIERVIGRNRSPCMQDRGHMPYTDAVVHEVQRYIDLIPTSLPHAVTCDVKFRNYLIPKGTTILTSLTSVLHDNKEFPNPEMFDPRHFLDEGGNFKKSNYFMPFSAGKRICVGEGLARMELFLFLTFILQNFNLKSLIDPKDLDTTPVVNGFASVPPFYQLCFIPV

[11] = target: Cytochrome P450 2D6 (Homo sapiens, UniProt P10635); test: Activity of human recombinant CYP2D6 assessed as metabolite formation at 50 uM in presence of NADPH by LC-MS/MS method; format: ADME; details: recombinant enzyme
Chain of Cytochrome P450 2D6 (P10635 whole entry): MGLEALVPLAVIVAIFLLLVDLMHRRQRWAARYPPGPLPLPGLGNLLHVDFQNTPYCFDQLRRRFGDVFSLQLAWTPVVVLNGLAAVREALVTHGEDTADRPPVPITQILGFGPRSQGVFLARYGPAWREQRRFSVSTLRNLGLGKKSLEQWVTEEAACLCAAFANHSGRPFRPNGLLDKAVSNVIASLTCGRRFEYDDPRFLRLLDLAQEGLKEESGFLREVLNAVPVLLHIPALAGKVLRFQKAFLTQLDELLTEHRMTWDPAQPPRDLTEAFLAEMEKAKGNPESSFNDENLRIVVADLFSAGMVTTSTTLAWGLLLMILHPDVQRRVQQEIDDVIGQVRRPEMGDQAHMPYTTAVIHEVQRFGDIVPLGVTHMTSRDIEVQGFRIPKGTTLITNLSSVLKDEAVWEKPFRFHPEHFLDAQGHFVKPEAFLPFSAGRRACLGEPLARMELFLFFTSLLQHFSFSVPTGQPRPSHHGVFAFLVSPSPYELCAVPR

[12] = Drug metabolism in NADPH supplemented rabbit liver S9 fraction assessed as 3-((4,5-dihydro-1H-imidazol-2-yl)methyl)-6-(1-hydroxy-2-methylpropan-2-yl)-2,4-dimethylphenol formation at 50 uM in presence of glutathione by LC-MS/MS method; format: ADME, subcellular, Oryctolagus cuniculus; details: s9, 50 µM
[13] = target: T3, Cytochrome P450 2C8 (Homo sapiens, UniProt P10632); test: Activity of human recombinant CYP2C8 assessed as metabolite formation at 50 uM in presence of NADPH by LC-MS/MS method; format: ADME; details: recombinant enzyme
T3 sequence (P10632 whole entry): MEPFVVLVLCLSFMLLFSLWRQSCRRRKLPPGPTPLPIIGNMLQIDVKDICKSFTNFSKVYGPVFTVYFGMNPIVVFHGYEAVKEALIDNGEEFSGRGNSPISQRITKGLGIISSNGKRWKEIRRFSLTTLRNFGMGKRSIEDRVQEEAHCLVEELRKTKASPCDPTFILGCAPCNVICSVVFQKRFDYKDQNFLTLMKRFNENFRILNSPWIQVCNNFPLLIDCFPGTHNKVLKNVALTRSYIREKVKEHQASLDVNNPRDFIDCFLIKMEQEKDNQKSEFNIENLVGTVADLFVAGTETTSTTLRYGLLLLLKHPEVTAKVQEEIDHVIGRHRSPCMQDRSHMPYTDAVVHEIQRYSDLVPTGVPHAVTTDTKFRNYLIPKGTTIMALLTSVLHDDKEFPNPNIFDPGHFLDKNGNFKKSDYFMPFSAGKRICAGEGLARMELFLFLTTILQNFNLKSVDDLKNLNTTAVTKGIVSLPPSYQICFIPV

[14] = Drug metabolism in NADPH supplemented rat liver S9 fraction assessed as 3-((4,5-dihydro-1H-imidazol-2-yl)methyl)-6-(1-hydroxy-2-methylpropan-2-yl)-2,4-dimethylphenol formation at 50 uM in presence of glutathione by LC-MS/MS method; format: ADME, subcellular; details: s9, 50 µM
[15] = target: T2, Cytochrome P450 2C19; test: Activity of human recombinant CYP2C19 assessed as (S)-2-amino-5-((R)-3-(5-tert-butyl-2-((4,5-dihydro-1H-imidazol-2-yl)methyl)-4-hydroxy-3-methylbenzylthio)-1-(carboxymethylamino)-1-oxopropan-2-ylamino)-5-oxopentanoic acid formation at 50 uM in presence of NADPH and glutathione by LC-MS/MS method; format: ADME; details: recombinant enzyme
[16] = target: Cytochrome P450 2E1 (Homo sapiens, UniProt P05181); test: Activity of human recombinant CYP2E1 assessed as metabolite formation at 50 uM in presence of NADPH by LC-MS/MS method; format: ADME; details: recombinant enzyme
Chain of Cytochrome P450 2E1 (P05181 whole entry): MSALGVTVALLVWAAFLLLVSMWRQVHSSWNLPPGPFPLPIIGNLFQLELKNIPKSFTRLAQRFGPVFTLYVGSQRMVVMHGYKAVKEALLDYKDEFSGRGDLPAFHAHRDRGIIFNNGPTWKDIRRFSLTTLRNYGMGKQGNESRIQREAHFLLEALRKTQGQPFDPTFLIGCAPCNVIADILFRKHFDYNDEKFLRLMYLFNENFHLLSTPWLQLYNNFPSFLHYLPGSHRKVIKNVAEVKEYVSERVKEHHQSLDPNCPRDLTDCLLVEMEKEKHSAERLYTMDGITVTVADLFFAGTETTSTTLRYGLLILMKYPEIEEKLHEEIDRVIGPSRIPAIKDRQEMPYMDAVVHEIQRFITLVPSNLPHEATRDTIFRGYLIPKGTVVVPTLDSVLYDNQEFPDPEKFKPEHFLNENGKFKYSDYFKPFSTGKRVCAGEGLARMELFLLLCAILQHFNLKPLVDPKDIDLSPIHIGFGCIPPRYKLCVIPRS

Drug metabolism [1]: metabolite_detected
Drug metabolism [2]: metabolite_detected
Drug metabolism [3]: metabolite_not_detected
Drug metabolism [4]: metabolite_detected
Drug metabolism [5]: metabolite_detected
Drug metabolism [6]: metabolite_detected
Drug metabolism [7]: metabolite_detected
Drug metabolism [8]: metabolite_not_detected
Drug metabolism [9]: metabolite_detected
Drug metabolism [10]: metabolite_detected
Drug metabolism [11]: metabolite_not_detected
Drug metabolism [12]: metabolite_detected
Drug metabolism [13]: metabolite_not_detected
Drug metabolism [14]: metabolite_detected
Drug metabolism [15]: metabolite_detected
Drug metabolism [16]: metabolite_not_detected
Structure (SMILES): Cc1cc(C(C)(C)C)c(O)c(C)c1CC1=NCCN1 [OXYMETAZOLINE]
